# Assay results reported in patent US5444063A, “Enantiomerically pure β-D-dioxolane nucleosides with selective anti-Hepatitis B virus activity” (priority 1992, dated 1995).
# Several values for one entry are separate records, joined by “and”; a condition that tells them apart may be missing. Equal values may be shown once. Read-outs that look alike come from different tables or passages of the source.
# Key:
# [1] = system: HBV; conditions: relative to average levels in untreated cells; Korba and Gerin 1992; read-out: Concentration at which a 90% depression of HBV RI is typically observed; cited from earlier work
# [2] = Toxicity analysis of test compounds in 2.2.15 cells (neutral red dye uptake); assay type: cell-based; conditions: human
# Description: Toxicity analyses were performed in order to assess whether any observed antiviral effects are due to a general effect on cell viability. The method used was based on the uptake of neutral red dye, a standard and widely used assay for cell viability in a variety of virus-host systems, including HSV (herpes simplex virus) and HIV. Details of the procedure are provided in the toxicity table legends.
# The test compounds were used in the form of 40 mM stock solutions in DMSO (frozen on dry ice). Daily aliquots of the test samples were made and frozen at -20° C. so that each individual aliquot would be subjected to a single freeze-thaw cycle. The daily test aliquots were thawed, suspended into culture medium at room temperature and immediately added to the cell cultures° The compounds were tested at 0.0 and 1 μM for antiviral activity. The compounds were tested for toxicity at concentrations up to 300 μM.
# Toxicity analyses were performed in 96-well flat bottomed tissue culture plates. Cells for the toxicity analyses were cultured and treated with test compounds with the same schedule as used for the antiviral evaluations. Each compound was tested at 4 concentrations, each in triplicate cultures. Uptake of neutral red dye was used to determine the relative level of toxicity. The absorbance of internalized dye at […] (A510) was used for the quantitative analysis. Values are presented as a percentage of the average A510 values (±standard deviations) in 9 separate cultures of untreated cells maintained on the same 96-well plate as the test compounds.
# [3] = system: 2.2.15 cells; conditions: versus untreated cultures; Korba and Gerin 1992; read-out: Concentration at which a 2-fold reduction in dye uptake is typically observed; cited from earlier work
# [4] = Toxicity analysis of test compounds in 2.2.15 cells (neutral red dye uptake); assay type: cell-based; conditions: human; remark: listed apart in the source
# [5] = system: HBV; assay: Effect of nucleosides on HBV production in 2.2.15 cells (HBV virion DNA and intracellular HBV DNA); assay type: cell-based, Hepatitis B virus; conditions: for inhibition at 10 µM: Hepatitis B virus
# Description: The ability of β-D-dioxolane-nucleosides to inhibit HBV can be measured by various experimental techniques. The assay used herein to evaluate the ability of the disclosed compounds to inhibit the replication of HBV is described in detail in Korba and Gerin, Antiviral Res. 19:55-70 (1992). […] The other compounds disclosed herein are evaluated similarly.
# The antiviral evaluations were performed on two separate passages of cells, two cultures per passage (4 cultures total). All wells, in all plates, were seeded at the same density and at the same time.
# Due to the inherent variations in the levels of both intracellular and extracellular HBV DNA, only depressions greater than 3.0-fold (for HBV virion DNA) or 2.5-fold (for HBV DNA replication intermediates) from the average levels for these HBV DNA forms in untreated cells are generally considered to be statistically significant [P<0.05] (Korba and Gerin, Antiviral Res. 19: 55-70, 1992). The levels of integrated HBV DNA in each cellular DNA preparation (which remain constant on a per cell basis in these experiments) were used to calculate the levels of intracellular HBV DNA forms, thereby eliminating technical variations inherent in the blot hybridization assays.
# The test compounds were used in the form of 40 mM stock solutions in DMSO (frozen on dry ice). Daily aliquots of the test samples were made and frozen at -20° C. so that each individual aliquot would be subjected to a single freeze-thaw cycle. […] The compounds were tested for toxicity at concentrations up to 300 μM.
# [6] = 10 μM, individual culture, listed as DDC
structure (smiles),measurement,setting,value
"Nc1ccn([C@H]2CC[C@@H](CO)O2)c(=O)n1 [2',3'-ddC, 2',3'-dideoxycytosine, reference compound]",EC90,[1],9 to 12 µM
same,viability at 30 µM,[2]; 30 μM,101 ± 1%
same,viability at 100 µM,[2]; 100 μM,97 ± 2%
same,viability at 300 µM,[2]; 300 μM,44 ± 1%
same,CC50,[3],150 to 190 µM
same,viability at 1000 µM,[4],5 ± 1%
same,"HBV virion DNA, day 0",[5]; [6],66 pg/ml of cultured medium and 58 pg/ml of cultured medium and 67 pg/ml of cultured medium and 51 pg/ml of cultured medium
same,"HBV virion DNA, day 3",[5]; [6],50 pg/ml of cultured medium and 52 pg/ml of cultured medium and 51 pg/ml of cultured medium and 48 pg/ml of cultured medium
same,"HBV virion DNA, day 6",[5]; [6],20 pg/ml of cultured medium and 13 pg/ml of cultured medium and 19 pg/ml of cultured medium and 17 pg/ml of cultured medium
same,"HBV virion DNA, day 9",[5]; [6],2 pg/ml of cultured medium and 3 pg/ml of cultured medium
same,"Intracellular HBV DNA on Day 10, Mono (episomal 3.2kB HBV genomes)",[5]; [6],0.9 pg/μM of cellular DNA and 1.0 pg/μM of cellular DNA and 1.4 pg/μM of cellular DNA and 1.1 pg/μM of cellular DNA
same,"Intracellular HBV DNA on Day 10, RI (HBV DNA replication intermediates)",[5]; [6],6 pg/μM of cellular DNA and 4 pg/μM of cellular DNA and 5 pg/μM of cellular DNA and 7 pg/μM of cellular DNA
same,"HBV virion DNA, day 0, mean","[5]; 10 μM, mean of 4 cultures",60.50 pg/ml of cultured medium
same,"HBV virion DNA, day 3, mean","[5]; 10 μM, mean of 4 cultures",50.25 pg/ml of cultured medium
same,"HBV virion DNA, day 6, mean","[5]; 10 μM, mean of 4 cultures",17.25 pg/ml of cultured medium
same,"HBV virion DNA, day 9, mean","[5]; 10 μM, mean of 4 cultures",2.25 pg/ml of cultured medium
same,"Intracellular HBV DNA on Day 10, Mono, mean","[5]; 10 μM, mean of 4 cultures",1.10 pg/μM of cellular DNA
same,"Intracellular HBV DNA on Day 10, RI, mean","[5]; 10 μM, mean of 4 cultures",5.50 pg/μM of cellular DNA
same,inhibition at 10 µM,"[5]; 0 h, read-out: % inhibition, HBV virion DNA, day 0",3.97%
same,inhibition at 10 µM,"[5]; 72 h, read-out: % inhibition, HBV virion DNA, day 3",22.4%
same,inhibition at 10 µM,"[5]; 144 h, read-out: % inhibition, HBV virion DNA, day 6",77.5%
same,inhibition at 10 µM,"[5]; 216 h, read-out: % inhibition, HBV virion DNA, day 9",97%
same,inhibition at 10 µM,"[5]; 240 h, read-out: % inhibition, intracellular HBV DNA Mono, Day 10",56.4%
same,inhibition at 10 µM,"[5]; 240 h, read-out: % inhibition, intracellular HBV DNA RI, Day 10",92.5%
same,Depression of HBV DNA replication,"[5]; positive treatment control, at the concentration used",significant depressions of HBV DNA replication
